# Results from patent US20050058600A1, “3,3'-Diindolylmethane antiandrogenic compositions” (priority 2003, published 2005).
# What was measured:
# LNCaP cells = experiment: [3H]Thymidine incorporation (DNA synthesis) in LNCaP cells; type: cell-based, human; conditions: uninduced and androgen-induced (1 nM DHT) growth conditions
# AR [1] = experiment: pPSA-Luc / MMTV-Luc reporter assay in PC-3 cells with or without AR expression vector; type: cell-based, human
# Description: (§1) Plasmid Reporters and Expression Vectors. The ARE responsive luciferase reporter plasmid, pPSA-630 luciferase (pPSA-Luc) was prepared as previously described (29). pPSA-Luc contains the PSA promoter region (−630 to 12) with three AREs, all of which are critical to the activity of the pPSA-Luc promoter. The MMTV-Luc contains one consensus ARE and the expression vector, pCMV-hAR constitutively expresses a fully functional human androgen receptor. The pCMV-GFP-rAR was prepared as previously described (30).
# (§2) Transient Transfections with Reporters and Luciferase Assay. LNCaP and PC-3 cells were transfected, with some modifications, as previously described (20). For AR transactivation, cells were transfected with 0.1 μg of MMTV-Luc or pPSA-Luc per plate. Co-transfection experiments with pCMV-hAR or pCMV-GFP-rAR, 0.1 μg per plate was also used. For experiments involving GFP fluorescence imaging, treatments were not added until 30 h after transfection.
# AR [2] = molecular target: T1, AR (Homo sapiens, UniProt P10275); experiment: as above; type: cell-based; conditions: PC-3 co-transfected with AR expression vector; pPSA-Luc, same with MMTV-Luc
# T1 construct: expressed in transfected cells; host or cells: PC-3
# T1 sequence (P10275 1-920): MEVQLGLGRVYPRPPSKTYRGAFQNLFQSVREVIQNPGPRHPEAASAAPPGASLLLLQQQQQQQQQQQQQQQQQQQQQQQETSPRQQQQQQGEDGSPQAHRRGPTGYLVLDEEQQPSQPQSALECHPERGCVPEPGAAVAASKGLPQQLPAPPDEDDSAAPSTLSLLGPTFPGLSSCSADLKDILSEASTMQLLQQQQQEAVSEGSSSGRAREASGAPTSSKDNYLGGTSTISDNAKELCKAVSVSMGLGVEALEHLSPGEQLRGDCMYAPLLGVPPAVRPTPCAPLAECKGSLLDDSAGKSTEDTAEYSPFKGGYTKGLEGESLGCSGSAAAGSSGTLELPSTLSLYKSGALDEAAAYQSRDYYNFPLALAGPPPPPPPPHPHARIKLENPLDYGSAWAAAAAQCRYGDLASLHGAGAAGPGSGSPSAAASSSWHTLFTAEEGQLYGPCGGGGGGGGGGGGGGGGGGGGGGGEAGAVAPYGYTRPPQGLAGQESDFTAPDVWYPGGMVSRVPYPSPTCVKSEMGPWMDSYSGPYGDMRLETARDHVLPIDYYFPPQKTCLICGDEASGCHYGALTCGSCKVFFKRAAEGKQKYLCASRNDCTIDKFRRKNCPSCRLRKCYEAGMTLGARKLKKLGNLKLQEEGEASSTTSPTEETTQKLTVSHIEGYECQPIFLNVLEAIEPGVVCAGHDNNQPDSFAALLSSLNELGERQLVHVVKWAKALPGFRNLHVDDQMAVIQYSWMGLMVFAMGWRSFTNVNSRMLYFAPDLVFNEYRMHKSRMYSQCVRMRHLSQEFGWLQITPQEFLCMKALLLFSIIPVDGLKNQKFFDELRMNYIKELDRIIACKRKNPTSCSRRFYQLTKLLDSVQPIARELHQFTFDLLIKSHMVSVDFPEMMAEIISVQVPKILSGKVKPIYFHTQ
# Description: as §1, §2
# [3] = test system: BP-induced pulmonary adenomas; conditions: mice; cited from earlier work
# [4] = test system: wild-type recombinant human AR; experiment: Competitive [3H]DHT binding assay, recombinant AR protein; conditions: micromolar concentration range
# PSA gene expression = experiment: Northern blot of endogenous PSA mRNA in LNCaP cells; type: cell-based, human
# Description: RNA Extraction, mRNA Purification and Northern Hybridization. mRNA isolation and Northern blot analyses were conducted as described previously (20, 31). PSA cDNA and the cDNA probes were biotinylated using NEBlot Phototope kit (New England Biolabs, Beverly, Mass.), purified via precipitation with 3 M sodium acetate (pH 5.2) and washed with 70% ethanol. After hybridization with cDNA probes, the membrane was incubated with streptavidin then biotinylated with alkaline phosphatase followed by the Phototope-CDP-Star assay (New England Biolabs, Beverly, Mass.), and autoradiographed. The amount of mRNA was quantified by Gel Densitometer (Bio-Rad) and normalized with β-actin as an internal control.
smiles,measurement,setting,value
"c1ccc2c(Cc3c[nH]c4ccccc34)c[nH]c2c1 [DIM, 3,3′-diindolylmethane]",inhibition of DNA synthesis,LNCaP cells,up to 90%
same,effect on pPSA-Luc reporter,AR [1]; PC-3 without co-transfection of an AR expression vector,has no effect
same,transactivation of reporter genes by compound alone,"AR [1]; either cell line, with or without co-transfection of wild-type AR",did not induce transactivation
same,inhibition of DHT-induced transactivation,AR [2],concentration-dependent inhibition
same,incidence of BP-induced pulmonary adenomas,[3],reduced the incidence
same,competition with labeled DHT for binding to the AR,[4],competes with labeled DHT for binding to the AR
same,inhibition of PSA mRNA induction by DHT,PSA gene expression; 24 h co-treatment with DIM,up to 80%
same,decrease in PSA mRNA levels,"PSA gene expression; DIM treatment, concentration- and time-dependent",up to 70%
